Results published in patent publication US20120283296A1, “PYRROLOPYRAZOLES FOR TREATING CNS DISORDERS” (aFRAXis, Inc., priority 2009, published 2012).
pKd: −log10 of the molar value. Like-named read-outs stand apart in the source and are kept apart here.

Key:
Experiment in all cases: Competitive binding (test PAK inhibitor affinity) assay, phage-displayed kinase vs immobilized staurosporine
[1] = biological target: PAK1 (Homo sapiens, UniProt Q13153)
[2] = biological target: PAK2 (Homo sapiens, UniProt Q13177)
PAK2, sequence (Q13177 whole entry): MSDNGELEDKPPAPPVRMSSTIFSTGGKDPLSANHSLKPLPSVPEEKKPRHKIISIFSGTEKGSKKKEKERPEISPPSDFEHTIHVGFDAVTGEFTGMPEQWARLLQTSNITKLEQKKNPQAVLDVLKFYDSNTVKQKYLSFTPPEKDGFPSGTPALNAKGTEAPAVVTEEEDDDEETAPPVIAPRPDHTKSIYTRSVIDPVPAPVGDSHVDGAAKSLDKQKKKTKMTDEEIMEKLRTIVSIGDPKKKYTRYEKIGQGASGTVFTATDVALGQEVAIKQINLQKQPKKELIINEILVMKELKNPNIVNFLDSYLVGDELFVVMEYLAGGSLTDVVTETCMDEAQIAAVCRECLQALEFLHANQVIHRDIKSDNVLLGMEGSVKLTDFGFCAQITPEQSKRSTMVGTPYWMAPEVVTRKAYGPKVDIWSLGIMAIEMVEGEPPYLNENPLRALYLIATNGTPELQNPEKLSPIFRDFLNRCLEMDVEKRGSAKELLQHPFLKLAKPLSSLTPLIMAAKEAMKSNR

[3] = biological target: PAK6 (Homo sapiens, UniProt Q9NQU5)
PAK6, sequence (Q9NQU5 whole entry): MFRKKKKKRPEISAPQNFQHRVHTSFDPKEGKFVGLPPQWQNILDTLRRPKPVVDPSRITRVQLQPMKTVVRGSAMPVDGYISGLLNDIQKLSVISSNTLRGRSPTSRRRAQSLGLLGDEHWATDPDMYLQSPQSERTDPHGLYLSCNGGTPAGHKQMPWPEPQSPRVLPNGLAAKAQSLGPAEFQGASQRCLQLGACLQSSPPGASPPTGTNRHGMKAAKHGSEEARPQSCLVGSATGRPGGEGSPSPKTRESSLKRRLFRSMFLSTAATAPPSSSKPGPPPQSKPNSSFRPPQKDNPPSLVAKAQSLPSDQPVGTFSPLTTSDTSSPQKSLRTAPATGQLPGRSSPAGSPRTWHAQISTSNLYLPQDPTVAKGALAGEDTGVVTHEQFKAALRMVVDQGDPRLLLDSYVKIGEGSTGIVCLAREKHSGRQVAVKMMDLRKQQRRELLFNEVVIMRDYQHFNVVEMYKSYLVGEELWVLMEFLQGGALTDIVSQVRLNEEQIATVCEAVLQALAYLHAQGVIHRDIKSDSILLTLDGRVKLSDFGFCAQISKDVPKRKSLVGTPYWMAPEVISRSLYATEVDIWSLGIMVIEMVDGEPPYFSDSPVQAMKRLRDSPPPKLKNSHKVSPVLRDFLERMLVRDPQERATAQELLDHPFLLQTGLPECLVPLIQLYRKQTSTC

[4] = biological target: PAK4 (Homo sapiens, UniProt O96013)
PAK4, sequence (O96013 whole entry): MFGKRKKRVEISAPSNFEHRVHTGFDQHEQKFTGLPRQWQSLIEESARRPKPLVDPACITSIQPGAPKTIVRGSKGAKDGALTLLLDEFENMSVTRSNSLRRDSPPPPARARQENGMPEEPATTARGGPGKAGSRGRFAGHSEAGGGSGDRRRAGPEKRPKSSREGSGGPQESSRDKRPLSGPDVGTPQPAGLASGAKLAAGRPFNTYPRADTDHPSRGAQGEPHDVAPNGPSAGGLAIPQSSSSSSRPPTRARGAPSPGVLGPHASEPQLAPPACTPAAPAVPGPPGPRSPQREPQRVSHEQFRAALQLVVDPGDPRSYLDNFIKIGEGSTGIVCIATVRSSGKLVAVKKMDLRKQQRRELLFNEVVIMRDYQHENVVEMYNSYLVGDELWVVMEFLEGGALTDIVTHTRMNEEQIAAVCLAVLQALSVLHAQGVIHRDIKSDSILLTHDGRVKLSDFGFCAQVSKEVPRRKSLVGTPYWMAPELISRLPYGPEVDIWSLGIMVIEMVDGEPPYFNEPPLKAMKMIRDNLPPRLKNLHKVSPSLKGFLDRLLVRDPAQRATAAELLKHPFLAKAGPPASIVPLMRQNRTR

[5] = biological target: PAK7 (Homo sapiens, UniProt Q9P286)
PAK7, sequence (Q9P286 whole entry): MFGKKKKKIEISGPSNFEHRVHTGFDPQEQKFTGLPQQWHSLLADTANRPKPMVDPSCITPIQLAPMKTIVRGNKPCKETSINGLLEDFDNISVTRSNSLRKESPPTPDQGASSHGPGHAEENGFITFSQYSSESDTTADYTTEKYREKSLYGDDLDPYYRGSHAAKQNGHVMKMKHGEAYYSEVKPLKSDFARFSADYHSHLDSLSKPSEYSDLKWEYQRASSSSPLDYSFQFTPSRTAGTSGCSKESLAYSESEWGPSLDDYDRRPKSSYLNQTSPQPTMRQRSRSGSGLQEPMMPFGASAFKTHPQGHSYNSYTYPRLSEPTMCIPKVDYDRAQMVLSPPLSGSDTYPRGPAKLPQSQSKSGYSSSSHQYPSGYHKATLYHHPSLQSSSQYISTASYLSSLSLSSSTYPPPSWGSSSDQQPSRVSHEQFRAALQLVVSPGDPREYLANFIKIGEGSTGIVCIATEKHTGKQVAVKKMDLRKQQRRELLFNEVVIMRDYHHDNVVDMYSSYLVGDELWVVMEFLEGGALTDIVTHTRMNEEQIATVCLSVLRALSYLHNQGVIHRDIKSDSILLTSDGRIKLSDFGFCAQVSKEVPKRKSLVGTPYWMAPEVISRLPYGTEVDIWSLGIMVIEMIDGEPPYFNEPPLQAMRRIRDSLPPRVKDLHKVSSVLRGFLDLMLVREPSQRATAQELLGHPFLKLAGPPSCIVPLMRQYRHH

PAK1, sequence (Q13153 whole entry): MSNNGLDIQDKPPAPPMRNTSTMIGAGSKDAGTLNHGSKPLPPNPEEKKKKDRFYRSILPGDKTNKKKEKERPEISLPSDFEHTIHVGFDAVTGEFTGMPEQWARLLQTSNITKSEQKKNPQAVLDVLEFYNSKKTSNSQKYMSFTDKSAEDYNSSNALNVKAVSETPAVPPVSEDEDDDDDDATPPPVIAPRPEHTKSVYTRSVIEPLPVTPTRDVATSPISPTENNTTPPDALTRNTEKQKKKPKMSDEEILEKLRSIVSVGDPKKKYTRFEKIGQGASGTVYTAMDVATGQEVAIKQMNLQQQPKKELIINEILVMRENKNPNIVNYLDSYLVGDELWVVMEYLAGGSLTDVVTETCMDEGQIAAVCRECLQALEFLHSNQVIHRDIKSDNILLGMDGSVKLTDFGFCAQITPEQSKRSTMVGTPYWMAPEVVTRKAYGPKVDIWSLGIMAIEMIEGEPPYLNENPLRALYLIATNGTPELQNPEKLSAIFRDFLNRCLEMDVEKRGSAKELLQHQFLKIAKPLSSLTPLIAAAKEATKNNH

pKd ([1]; read-out: Kd)	pKd ([2]; read-out: Kd)	pKd [4]	pKd [5]	Compound	pKd [1]	pKd [2]	pKd [3]
				Nc1nc(Nc2ccc(S(N)(=O)=O)cc2)nn1C(=O)c1c(F)cccc1F [JNJ-7706621]	≤ 5.00	≤ 5.00	> 5.30
> 5.30	≤ 5.00	≤ 5.00	≤ 5.00	CCOc1cc2ncc(C#N)c(Nc3ccc(F)c(Cl)c3)c2cc1NC(=O)/C=C/CN(C)C [EKB-569]			≤ 5.00
